In patent US11040028B2, “Penicinotam derivative, preparation method and use thereof” (OCEAN UNIVERSITY OF CHINA, priority 2017, dated 2021):

Assays:
Format in all cases: cell-based
[1] = tested on: cardiac fibroblast RAT-iCell-C002; test: Anti-fibrosis activity test: inhibition of proliferation of cardiac fibroblast RAT-iCell-C002 (CCK-8); details: Cardiac fibroblast, 48 h
Procedure, shortened: (§1)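 Seed 2×10^4 cells/mL; adhere 24 h, 37° C/5% CO2. Compounds, serial concentrations, triplicate, 48 h. CCK-8 2 h, A450. IR=(1−Ai/Ao)×100% vs blank; IC50 fitted. Pirfenidone as positive control.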

[2] = tested on: mouse macrophages (RAW264.7); test: Lipopolysaccharide-induced NO secretion in macrophages (Griess); details: Mus musculus, RAW264.7, 24 h, RAW264.7, LPS 1 μg/ml, a/b isomers given as first/second symbol, read-out: IC50 (μM), inhibition of lipopolysaccharide-induced NO secretion in macrophages
Procedure, shortened: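 LPS 1 μg/ml, 24 h, RAW264.7 (DMEM/10% FBS); cpds at varied concs. Supernatant NO by Griess, A548; % inhibition vs blank medium.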

[3] = tested on: human dermal fibroblasts CCC-ESF-1; test: Anti-fibrosis activity test: inhibition of proliferation of human dermal fibroblasts CCC-ESF-1 (CCK-8); details: Fibroblast
Procedure, shortened: as §1

[4] = tested on: human lung fibroblasts HFL1; test: Anti-fibrosis activity test: inhibition of proliferation of human lung fibroblasts HFL1 (CCK-8); details: Homo sapiens, HFL1, 48 h
Procedure, shortened: as §1

[5] = tested on: human fibrosarcoma cells HT-1080; test: Anti-fibrosis activity test: inhibition of proliferation of human fibrosarcoma cells HT-1080 (CCK-8); details: Homo sapiens, HT-1080, 48 h
Procedure, shortened: as §1

NF-κB = test: Immunological activity test: inhibition of NF-κB activity; details: initial concentration of 30 μM; a/b isomers given as first/second symbol; read-out: IC50 (μM), inhibitory activity against NF-κB
Procedure, shortened: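 Parthenolide as positive control; starting test concentration 30 μM; inhibition of NF-κB activity analysed further to yield IC50.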

BHK-21 cells = test: Anti-fibrosis activity test: inhibition of BHK-21 cell proliferation (CCK-8); details: Mesocricetus auratus, BHK-21, 48 h
Procedure, shortened: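 Proliferation of BHK-21 cells is measured by CCK-8 at 450 nm following 48 h compound exposure at several concentrations. Inhibition is expressed relative to blank control and IC50 is computed from it.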

[6] = tested on: human hepatic stellate cells LX-2; test: Anti-fibrosis activity test: inhibition of proliferation of human hepatic stellate cells LX-2 (CCK-8); details: Homo sapiens, 48 h
Procedure, shortened: as §1

[7] = tested on: human embryonic lung fibroblast IMR-90; test: Anti-fibrosis activity test: inhibition of proliferation of human embryonic lung fibroblast IMR-90 (CCK-8)
Procedure, shortened: as §1

[8] = Homo sapiens, CCC-ESF-1 cells, 48 h, CCK-8
[9] = Homo sapiens, IMR-90 cells, 48 h, CCK-8
[10] = cardiac fibroblast RAT-iCell-C002, CCK-8, 48 hours
[11] = human dermal fibroblasts CCC-ESF-1, CCK-8, 48 hours
[12] = human lung fibroblasts HFL1, CCK-8, 48 hours
[13] = human fibrosarcoma cells HT-1080, CCK-8, 48 hours
[14] = CCK-8, 48 hours after administration
[15] = human hepatic stellate cells LX-2, CCK-8, 48 hours
[16] = human embryonic lung fibroblast IMR-90, CCK-8, 48 hours

| Structure (SMILES) | IC50 ([1]; RAT-iCell-C002 cells, CCK-8) | IC50 [2] | IC50 [3, 8] | IC50 ([4]; HFL1 cells, 48 h, CCK-8) | IC50 ([5]; HT-1080 cells, 48 h, CCK-8) | IC50 (NF-κB) | IC50 (BHK-21 cells; 48 h, CCK-8) | IC50 ([6]; LX-2, 48 h, LX-2 cells, CCK-8) | IC50 [7, 9] | IC50 [1, 10] | IC50 [3, 11] | IC50 [4, 12] | IC50 [5, 13] | IC50 (BHK-21 cells; [14]) | IC50 [6, 15] | IC50 [7, 16] |
| --- | --- | --- | --- | --- | --- | --- | --- | --- | --- | --- | --- | --- | --- | --- | --- | --- |
| Cc1ccc2n1C(=O)c1nc3ccccc3c(O)c1-2 [Compound 799b, 11-hydroxy-3-methyl-5H-pyrrolizino[2,1-b]quinolin-5-one] | 0.05 to 5 mM | 1 to 10 µM | 0.05 to 5 mM | 0.05 to 5 mM | 0.05 to 5 mM | 1 to 10 µM | 0.05 to 5 mM | 0.05 to 5 mM | 0.05 to 5 mM | – | – | – | – | – | – | – |
| O=C1c2c(nc3ccccc3c2OCc2ccccc2Br)-c2cccn21 [Compound 612b, 9-((2-bromobenzyl)oxy)-10H-pyrrolizino[1,2-b]quinolin-10-one] | – | 10 to 50 µM | – | – | – | 1 to 10 µM | – | – | – | 0.05 to 5 mM | 0.05 to 5 mM | 0.05 to 5 mM | 0.05 to 5 mM | 0.05 to 5 mM | 0.05 to 5 mM | 0.05 to 5 mM |
| Cc1ccc2nc3c(c(O)c2c1)C(=O)n1cccc1-3 [Compound 696b, 9-hydroxy-7-methyl-10H-pyrrolizino[1,2-b]quinolin-10-one] | 0.05 to 5 mM | 1 to 10 µM | 0.05 to 5 mM | 0.05 to 5 mM | 0.05 to 5 mM | 1 to 10 µM | 0.05 to 5 mM | 0.05 to 5 mM | 0.05 to 5 mM | – | – | – | – | – | – | – |
| CCCOCCOc1c2c(nc3ccccc13)-c1cccn1C2=O [Compound 671b, 9-(2-propoxyethoxy)-10H-pyrrolizino[1,2-b]quinolin-10-one] | 0.05 to 5 mM | 1 to 10 µM | 0.05 to 5 mM | 0.05 to 5 mM | 0.05 to 5 mM | 0.1 to 1 µM | 0.05 to 5 mM | 0.05 to 5 mM | 0.05 to 5 mM | – | – | – | – | – | – | – |
| CCOC(=O)Cn1c2c(c(=O)c3ccccc31)C(=O)n1cccc1-2 [Compound 654a, Ethyl 2-(9,10-dioxo-9H-pyrrolizino[1,2-b]quinolin-4(10H)-yl)acetate] | – | 1 to 10 µM | – | – | – | 1 to 10 µM | – | – | – | 0.05 to 5 mM | < 0.05 mM | 0.05 to 5 mM | 0.05 to 5 mM | 5 to 20 mM | 0.05 to 5 mM | 0.05 to 5 mM |
| O=C1c2c(nc3ccccc3c2OCc2ccccc2[N+](=O)[O-])-c2cccn21 [Compound 668b, 9-((2-nitrobenzyl)oxy)-10H-pyrrolizino[1,2-b]quinolin-10-one] | 0.05 to 5 mM | 1 to 10 µM | 0.05 to 5 mM | 0.05 to 5 mM | 0.05 to 5 mM | 1 to 10 µM | 0.05 to 5 mM | 0.05 to 5 mM | 0.05 to 5 mM | – | – | – | – | – | – | – |
| O=C1c2c(nc3ccccc3c2OCc2cc(F)ccc2F)-c2cccn21 [Compound 573b, 9-((2,5-difluorobenzyl)oxy)-10H-pyrrolizino[1,2-b]quinolin-10-one] | – | 0.1 to 1 µM | – | – | – | 1 to 10 µM | – | – | – | < 0.05 mM | 0.05 to 5 mM | 0.05 to 5 mM | 0.05 to 5 mM | 0.05 to 5 mM | 0.05 to 5 mM | 0.05 to 5 mM |
| O=C1c2c(n(Cc3c(F)c(F)c(F)c(F)c3F)c3ccccc3c2=O)-c2cccn21 [Compound 586a, 4-((Perfluorophenyl)methyl)-9H-pyrrolizino[1,2-b]quinoline-9,10(4H)-dione] | – | 0.1 to 1 µM | – | – | – | 1 to 10 µM | – | – | – | 0.05 to 5 mM | 0.05 to 5 mM | 0.05 to 5 mM | 0.05 to 5 mM | 0.05 to 5 mM | 0.05 to 5 mM | 0.05 to 5 mM |
| O=C1c2c(n(C(=O)c3ccco3)c3ccccc3c2=O)-c2cccn21 [Compound 95a, 4-(Furan-2-carbonyl)-9H-pyrrolizino[1,2-b]quinoline-9,10(4H)-dione] | – | 1 to 10 µM | – | – | – | 1 to 10 µM | – | – | – | 0.05 to 5 mM | 0.05 to 5 mM | 0.05 to 5 mM | < 0.05 mM | 0.05 to 5 mM | < 0.05 mM | < 0.05 mM |
| O=C1c2c(nc3ccccc3c2OCc2ccc(Br)cc2F)-c2cccn21 [Compound 606b, 9-((4-bromo-2-fluorobenzyl)oxy)-10H-pyrrolizino[1,2-b]quinolin-10-one] | – | 1 to 10 µM | – | – | – | 1 to 10 µM | – | – | – | 0.05 to 5 mM | 0.05 to 5 mM | 0.05 to 5 mM | 0.05 to 5 mM | 0.05 to 5 mM | 0.05 to 5 mM | 0.05 to 5 mM |
| N#Cc1cccc(COc2c3c(nc4ccccc24)-c2cccn2C3=O)c1 [Compound 597b, 3-(((10-oxo-10H-pyrrolizino[1,2-b]quinolin-9-yl)oxy)methyl)benzonitrile] | – | 1 to 10 µM | – | – | – | 1 to 10 µM | – | – | – | 0.05 to 5 mM | 0.05 to 5 mM | 0.05 to 5 mM | 0.05 to 5 mM | 0.05 to 5 mM | 0.05 to 5 mM | 0.05 to 5 mM |
| O=C1c2c(nc3ccccc3c2OCCCCN2CCOCC2)-c2cccn21 [Compound 664b, 9-(4-morpholinobutoxy)-10H-pyrrolizino[1,2-b]quinolin-10-one] | – | 10 to 50 µM | – | – | – | 1 to 10 µM | – | – | – | 0.05 to 5 mM | 0.05 to 5 mM | 0.05 to 5 mM | 0.05 to 5 mM | 0.05 to 5 mM | 0.05 to 5 mM | 0.05 to 5 mM |
| CN(C)CCCn1c2c(c(=O)c3ccccc31)C(=O)n1cccc1-2 [Compound 658a, 4-(3-(Dimethylamino)propyl)-9H-pyrrolizino[1,2-b]quinoline-9,10(4H)-dione] | – | 1 to 10 µM | – | – | – | 0.001 to 0.1 µM | – | – | – | 0.05 to 5 mM | 0.05 to 5 mM | 0.05 to 5 mM | 0.05 to 5 mM | 0.05 to 5 mM | 0.05 to 5 mM | 0.05 to 5 mM |
| O=C1c2c(n(Cc3cccc(I)c3)c3ccccc3c2=O)-c2cccn21 [Compound 608a, 4-(3-Iodobenzyl)-9H-pyrrolizino[1,2-b]quinoline-9,10(4H)-dione] | – | 1 to 10 µM | – | – | – | 1 to 10 µM | – | – | – | 0.05 to 5 mM | 0.05 to 5 mM | 0.05 to 5 mM | 0.05 to 5 mM | < 0.05 mM | 0.05 to 5 mM | < 0.05 mM |
| COc1ccc2c(O)c3c(nc2c1)-c1cccn1C3=O [Compound 560b, 9-hydroxy-6-methoxy-10H-pyrrolizino[1,2-b]quinolin-10-one] | – | 1 to 10 µM | – | – | – | 1 to 10 µM | – | – | – | 0.05 to 5 mM | 0.05 to 5 mM | 0.05 to 5 mM | 0.05 to 5 mM | 0.05 to 5 mM | 0.05 to 5 mM | 0.05 to 5 mM |
| O=C1c2c(n(Cc3ccccc3Br)c3ccccc3c2=O)-c2cccn21 [Compound 612a, 4-(2-Bromobenzyl)-9H-pyrrolizino[1,2-b]quinoline-9,10(4H)-dione] | – | 10 to 50 µM | – | – | – | 1 to 10 µM | – | – | – | 0.05 to 5 mM | 0.05 to 5 mM | 0.05 to 5 mM | 0.05 to 5 mM | 0.05 to 5 mM | 0.05 to 5 mM | 0.05 to 5 mM |
| O=C1c2c(n(Cc3ccc(Cl)cc3)c3cccc(Cl)c3c2=O)-c2cccn21 [Compound 477a, 8-Chloro-4-(4-chlorobenzyl)-9H-pyrrolizino[1,2-b]quinoline-9,10(4H)-dione] | – | 1 to 10 µM | – | – | – | 10 to 50 µM | – | – | – | 0.05 to 5 mM | 0.05 to 5 mM | 0.05 to 5 mM | 0.05 to 5 mM | 0.05 to 5 mM | 0.05 to 5 mM | 0.05 to 5 mM |
| CN(C)CCOc1c2c(nc3ccccc13)-c1cccn1C2=O [Compound 12b, 9-(2-(dimethylamino)ethoxy)-10H-pyrrolizino[1,2-b]quinolin-10-one] | – | 1 to 10 µM | – | – | – | 1 to 10 µM | – | – | – | 0.05 to 5 mM | 0.05 to 5 mM | 0.05 to 5 mM | 0.05 to 5 mM | 0.05 to 5 mM | 0.05 to 5 mM | 0.05 to 5 mM |
| Cc1cc(C)c2[nH]c3c(c(=O)c2c1)C(=O)n1cccc1-3 [Compound 750a, 5,7-Dimethyl-9H-pyrrolizino[1,2-b]quinoline-9,10(4H)-dione] | 0.05 to 5 mM | 1 to 10 µM | 0.05 to 5 mM | 0.05 to 5 mM | 0.05 to 5 mM | 1 to 10 µM | 0.05 to 5 mM | 0.05 to 5 mM | 0.05 to 5 mM | – | – | – | – | – | – | – |
